Target: T1, hSFRP-1 (Homo sapiens, UniProt Q8N474)
T1 construct: expressed in transfected cells; host or cells: U2OS osteosarcoma cells (ATCC, HTB 96), transient co-transfection with Wnt 3, Wnt3A or Wnt 1, 16x TCF-tk-Luciferase reporter and CMV-beta-gal
T1 sequence (Q8N474 32-314): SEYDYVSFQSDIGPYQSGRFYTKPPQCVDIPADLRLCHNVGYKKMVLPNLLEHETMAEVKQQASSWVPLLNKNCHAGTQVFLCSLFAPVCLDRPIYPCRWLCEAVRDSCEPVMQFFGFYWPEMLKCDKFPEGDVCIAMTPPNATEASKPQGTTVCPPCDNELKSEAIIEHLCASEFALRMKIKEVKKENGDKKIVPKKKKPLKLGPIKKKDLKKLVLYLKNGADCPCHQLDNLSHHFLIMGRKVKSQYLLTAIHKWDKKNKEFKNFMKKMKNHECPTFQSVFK
Experiment: Cell-Based Assay for In Vitro Measurement of SFRP-1/SARP2 Antagonist Activity (U2OS cells, 16x TCF-tk-Luciferase reporter, Wnt + hSFRP-1 co-transfection)
Details: initial single dose screening at 10 μM; for Ratio: ratio not defined
Experimental: Cell-Based Assay for In Vitro Measurement of SFRP-1/SARP2 Antagonist Activity
The following cell-based assay can be used to identify inhibitors of SFRP-1.
The osteosarcoma cell line, U2OS (ATCC, HTB 96), was passaged twice a week with growth medium (McCoy's SA medium containing 10% (v/v) fetal calf serum, 2 mM GlutaMAX-1, and 1% (v/v) Penicillin-Streptomycin). The cells were maintained in vented flasks at 37° C. inside a 5% CO2/95% humidified air incubator. One day prior to transfection, the cells were plated with growth medium at 25,000 cells/well into 96-well plates and incubated at 37° C. overnight.
The growth medium was removed, and the cells were washed once with OPTIMEM I (Gibco-BRL) medium (100 μl/well) to remove the serum and antibiotics. The wash medium was removed, and the cells were re-fed with OPTI-MEM I medium (100 μl/well). For each well of cells to be transfected, the following DNA's were diluted together in 25 μl OPTI-MEM I medium: 0.1 μg 16× TCF-tk-Luciferase reporter, 0.02 μg Wnt 3, Wnt3A, Wnt 1 or empty vector (Upstate Biotechnology), 0.075 μg hSFRP-1 or empty vector (pcDNA3.1, Invitrogen), and 0.025 μg CMV-®gal (Clonetech). For each well of cells to be transfected, 1 μl of Lipofectamine 2000 reagent (Invitrogen) was diluted in 25 μl OPTI-MEM I medium and incubated at room temperature for 5 minutes. The diluted DNA's were then combined with the diluted Lipofectamine 2000 (LF2000), and the mixture was incubated at room temperature for 20 minutes. Fifty μl of the DNA-LF 2000 mixture was added to each well, and the plate(s) were incubated at 37° C. in a 5% CO2/95% humidified air incubator for 4 hours. The cells were washed once with 150 μl/well of experimental medium (phenol red-free RPMI Medium 1640 containing 2% fetal bovine serum, 2 mM GlutaMAX-1, and 1% Penicillin-Streptomycin). Finally, the cells were treated overnight at 37° C. with 200 μl/well of experimental medium containing either vehicle (typically DMSO) or diluted compound in replicates of 8 wells/compound.
Initial single dose screening of test compounds was done at 10 μM.
Dose-response experiments were initially performed with the compounds in log increases from 1-10,000 nM. From these dose-response curves, EC50 values were generated.
After treatment, the cells were washed twice with 150 μl/well of PBS without calcium or magnesium and were lysed with 50 μl/well of 1× cell culture lysis reagent (Promega Corporation) on a shaker at room temperature for 30 minutes. Thirty μl aliquots of the cell lysates were transferred to 96-well luminometer plates, and luciferase activity was measured in a MicroLumat PLUS luminometer (EG&G Berthold), or a Victor (PerkinElmer Life Sciences) using […] of luciferase substrate (Promega Corporation). Following the injection of substrate, luciferase activity was measured for 10 seconds after a 1.6 second delay. Similarly, 10 μl aliquots of the cell lysates were transferred to separate 96-well luminometer plates, and 50 μl of Galacton chemiluminescent substrate (Tropix) was added to each well. The plates were covered and incubated on a rotary shaker at room temperature for one hour. ®gal activity was measured in a MicroLumat PLUS luminometer or Victor using 100 μl/well of Light Emission Accelerator (Tropix). Following the injection of the accelerator, ®gal activity was measured for 10 seconds after a 1.6 second delay. The luciferase and ®gal activity data were transferred from the luminometer to a PC and analyzed using the SAS/Excel program. After the luciferase activity was normalized to ®gal, the SAS/Excel program was used to determine the mean and standard deviation of each treatment, to analyze the data for statistical significance, and to determine EC50 values.
As an alternative to co-transfection in a 96 well plate, the U2OS cells were transfected in T225 flasks and the transfected cells were frozen. The frozen cells were thawed and plated on a 96 well plate and the assay was carried out as detailed above. […]

[1] = luciferase reporter activity, fold induction over SFRP-1 control

SMILES	fold induction at 10 µM [1]	Ratio	Fold induction with SFRP-1 [1]
N=C1NC(=O)C(CC(=O)Nc2cccc([N+](=O)[O-])c2)S1 (stereo not drawn) [Example 29, 2-(2-imino-4-oxo-1,3-thiazolidin-5-yl)-N-(3-nitrophenyl)acetamide]	1.7	1.4	
CC(=O)c1cccc(NC(=O)CC2SC(=N)NC2=O)c1 (stereo not drawn) [Example 30, N-(3-acetylphenyl)-2-(2-imino-4-oxo-1,3-thiazolidin-5-yl)acetamide]	1.2	1.1	
N=C1NC(=O)C(CC(=O)Nc2sc3c(c2C(N)=O)CCCC3)S1 (stereo not drawn) [Example 32, 2-{[(2-imino-4-oxo-1,3-thiazolidin-5-yl)acetyl]amino}-4,5,6,7-tetrahydro-1-benzothiophene-3-carboxamide]	1	1.1	
CCOC(=O)c1cc(CC)sc1NC(=O)CC1SC(=N)NC1=O (stereo not drawn) [Example 33, ethyl 5-ethyl-2-{[(2-imino-4-oxo-1,3-thiazolidin-5-yl)acetyl]amino}thiophene-3-carboxylate]	1.5	1.7	
COC(=O)c1ccsc1NC(=O)CC1SC(=N)NC1=O (stereo not drawn) [Example 34, methyl 2-{[(2-imino-4-oxo-1,3-thiazolidin-5-yl)acetyl]amino}thiophene-3-carboxylate]	1.2	1.3	
CCOC(=O)c1c(NC(=O)CC2SC(=N)NC2=O)sc2c1CCCC2 (stereo not drawn) [Example 35, ethyl 2-{[(2-imino-4-oxo-1,3-thiazolidin-5-yl)acetyl]amino}-4,5,6,7-tetrahydro-1-benzothiophene-3-carboxylate]	1.4	1.6	
CCOC(=O)c1c(NC(=O)CC2SC(=N)NC2=O)sc2c1CCCCC2 (stereo not drawn) [Example 36, ethyl 2-{[(2-imino-4-oxo-1,3-thiazolidin-5-yl)acetyl]amino}-5,6,7,8-tetrahydro-4H-cyclohepta[b]thiophene-3-carboxylate]	1.5	1.9	
COC(=O)c1sc(C(C)(C)C)cc1NC(=O)CC1SC(=N)NC1=O (stereo not drawn) [Example 42, methyl 5-tert-butyl-3-{[(2-imino-4-oxo-1,3-thiazolidin-5-yl)acetyl]amino}thiophene-2-carboxylate]	1.5	1.7	
CCOC(=O)c1c(NC(=O)CC2SC(=N)NC2=O)sc2c1CCC2 (stereo not drawn) [Example 44, ethyl 2-{[(2-imino-4-oxo-1,3-thiazolidin-5-yl)acetyl]amino}-5,6-dihydro-4H-cyclopenta[b]thiophene-3-carboxylate]	1.6	1.5	
CCOC(=O)c1c(NC(=O)CC2SC(=N)NC2=O)sc(C)c1-c1ccccc1 (stereo not drawn) [Example 48, ethyl 2-{[(2-imino-4-oxo-1,3-thiazolidin-5-yl)acetyl]amino}-5-methyl-4-phenylthiophene-3-carboxylate]	1.6	1.8	
COC(=O)c1cc(OC)c(OC)cc1NC(=O)CC1SC(=N)NC1=O (stereo not drawn) [Example 53, methyl 2-{[(2-imino-4-oxo-1,3-thiazolidin-5-yl)acetyl]amino}-4,5-dimethoxybenzoate]	1	1.0	
CCOC(=O)c1c(NC(=O)CC2SC(=N)NC2=O)sc(Br)c1C (stereo not drawn) [Example 54, Ethyl 5-bromo-2-{[(2-imino-4-oxo-1,3-thiazolidin-5-yl)acetyl]amino}-4-methylthiophene-3-carboxylate]	2.6	2.6	

More lines, now with the values ahead:

fold induction at 10 µM [1]	Ratio	Fold induction with SFRP-1 [1]	SMILES
1.7	1.5		N=C1NC(=O)C(CC(=O)Nc2cccc(OC(F)(F)F)c2)S1 (stereo not drawn) [Example 31, 2-(2-imino-4-oxo-1,3-thiazolidin-5-yl)-N-[3-(trifluoromethoxy)phenyl]acetamide]
1.5	1.7		COC(=O)c1c(NC(=O)CC2SC(=N)NC2=O)sc2c1CCC(OC)C2 (stereo not drawn) [Example 37, methyl 2-{[(2-imino-4-oxo-1,3-thiazolidin-5-yl)acetyl]amino}-6-methoxy-4,5,6,7-tetrahydro-1-benzothiophene-3-carboxylate]
1.3	1.4		COC(=O)c1c(NC(=O)CC2SC(=N)NC2=O)sc2c1CCCC2 (stereo not drawn) [Example 38, methyl 2-{[(2-imino-4-oxo-1,3-thiazolidin-5-yl)acetyl]amino}-4,5,6,7-tetrahydro-1-benzothiophene-3-carboxylate]
1	1.0		COC(=O)c1scc(C)c1NC(=O)CC1SC(=N)NC1=O (stereo not drawn) [Example 43, methyl 3-{[(2-imino-4-oxo-1,3-thiazolidin-5-yl)acetyl]amino}-4-methylthiophene-2-carboxylate]
	1.0	1.1 fold	CCOC(=O)c1c(-c2ccccc2)csc1NC(=O)CC1SC(=N)NC1=O (stereo not drawn) [Example 45, ethyl 2-{[(2-imino-4-oxo-1,3-thiazolidin-5-yl)acetyl]amino}-4-phenyIthiophene-3-carboxylate]
1.1	1.0		CCOC(=O)c1c(-c2ccco2)csc1NC(=O)CC1SC(=N)NC1=O (stereo not drawn) [Example 46, ethyl 4-(2-furyl)-2-{[(2-imino-4-oxo-1,3-thiazolidin-5-yl)acetyl]amino}thiophene-3-carboxylate]
1.1	1.0		CCOC(=O)c1c(-c2ccc(F)cc2)csc1NC(=O)CC1SC(=N)NC1=O (stereo not drawn) [Example 47, ethyl 4-(4-fluorophenyl)-2-{[(2-imino-4-oxo-1,3-thiazolidin-5-yl)acetyl]amino}thiophene-3-carboxylate]
1.6	1.2		N#Cc1c(NC(=O)CC2SC(=N)NC2=O)sc2c1CCCC2 (stereo not drawn) [Example 49, N-(3-cyano-4,5,6,7-tetrahydro-1-benzothien-2-yl)-2-(2-imino-4-oxo-1,3-thiazolidin-5-yl)acetamide]
1.1	1.0		COC(=O)c1ccccc1NC(=O)CC1SC(=N)NC1=O (stereo not drawn) [Example 50, methyl 2-{[(2-imino-4-oxo-1,3-thiazolidin-5-yl)acetyl]amino}benzoate]
1.1	1.1		CCOC(=O)c1ccccc1NC(=O)CC1SC(=N)NC1=O (stereo not drawn) [Example 51, ethyl 2-{[(2-imino-4-oxo-1,3-thiazolidin-5-yl)acetyl]amino}benzoate]
1.1	1.1		COC(=O)c1cc(Cl)ccc1NC(=O)CC1SC(=N)NC1=O (stereo not drawn) [Example 52, methyl 5-chloro-2-{[(2-imino-4-oxo-1,3-thiazolidin-5-yl)acetyl]amino}benzoate]
1.2	0.9		CC(C)(C)OC(=O)c1cc(-c2ccccc2)sc1NC(=O)CC1SC(=N)NC1=O (stereo not drawn) [Example 55, tert-butyl 2-{[(2-imino-4-oxo-1,3-thiazolidin-5-yl)acetyl]amino}-5-phenylthiophene-3-carboxylate]
